# Measured values reported in patent publication EP4467141A1, “PYRAZOLO-QUINOLINES AS SELECTIVE INHIBITORS OF GENOTOXIC STRESS-INDUCED IKK/NF- KB PATHWAYS FOR CANCER THERAPY” (Max-Delbrück-Centrum für Molekulare Medizin in der …, priority 2023, dated 2024).
# What was measured:
# [1] = system: BIRC3; assay: RT-qPCR mRNA expression analysis of BIRC3 in U2-OS cells after irradiation; assay type: cell-based; conditions: 10 µM, 8 hours after 10 Gy irradiation
# [2] = system: p65 nuclear translocation; assay: HCS screening: etoposide-induced p65 nuclear translocation in U2-OS cells; assay type: cell-based; conditions: Homo sapiens, U2OS, read-out: etoposide-stimulated IC50 of p65 nuclear translocation
# Method: Fig.1: Identification of inhibitors specific for DNA damage-induced NF-κB activity. (A) Flowchart representing the high-throughput chemical library screening. A screen/counter-screen strategy was used by stimulating NF-κB in U2-OS cells with etoposide (50 µM for 90 min) and hits were counter-screened with TNFα (10 ng/ml for 20 min). Cells were pre-treated with compounds (10 µM) for 1 hour before stimulation, fixed, and percent p65 nuclear translocation measured by fluorescence microscopy. IC50 values were used for final selection. (B) Comparison of mean p65 nuclear translocation following either etoposide or TNFa stimulation after treatment with each counter-screened hit compound. Values were normalized to etoposide or TNFα positive controls. Specific inhibitors (red) of DNA damage-induced NF-κB signaling were defined by setting cut-off criteria (black line). […] (E) Western blot analysis (top) and quantification (bottom) of NF-κB subunit p65 phosphorylation (S536) following 1-hour pre-treatment with DMSO, MW01 (10 µM), or MW05 (10 µM), in unstimulated, after 90 min irradiation (IR, 20 Gy), or after 20 min TNFα (10 ng/mL) conditions in U2- OS cells. […]
# To identify inhibitors that selectively prevent DNA damage-induced NF-κB activation, we established a high-throughput screening platform quantifying p65 nuclear translocation, an essential step in NF-κB activation (Hayden and Ghosh, 2008). […]
SMILES,upregulation of anti-apoptotic NF-κB target gene BIRC3 [1],IC50 [2]
"COc1ccc2c(c1OC)c(=O)n1c3ccc(O)cc3c3ccnc2c31 [MW01, 5-Hydroxy-10,11-dimethoxy-9H-benzo[c]indolo[3,2,1-ij][1,5]naphthyridin-9-one]",abolished,0.46 µM
"COc1ccc2cc3c(N)nn(C(=O)c4cccc(N(C)C)c4)c3nc2c1 [MW05, (3-Amino-7-methoxypyrazolo[3,4-b]quinolin-1-yl)-[3-(dimethylamino)phenyl]methanone]",abolished,0.69 µM
